The test relates to NMJs manufactured using ALS neural biohybrids. Put plainly: Muscle bundle contraction in 3D ALS-neuromuscular junction model. It counts as cell-based, human. The settings on record: ALS-NMJ. As to the method: First, a hydrogel used for the 3D muscle bundles was prepared using a mixture of 340 μl of C2C12, 30% Matrigel, 250 μl of 16 mg/ml […], 10 μl of thrombin (0.5 U/1 mg fibrinogen) and 100 μl of DMEM.
After culturing for 4 days, the medium was replaced with DMEM supplemented with 2% horse serum, 100 U/mL penicillin-G, 100 μg/mL streptomycin, 1 mg/mL aminocaproic acid, and 1 ng/mL insulin growth factor-1 (IGF-1) as a muscle cell differentiation medium. The medium was changed every 2 days, and differentiation was carried out for 14 days or more.
The co-culture differentiation medium, along with muscle differentiation medium, was supplemented with brain-derived and glial cell line-derived neurotrophic factors (10 ng/ml BDNF and 10 ng/ml GDNF) to support viability of multiple neural biohybrids. The differentiation medium was replaced every two days for two weeks.

In the case of `COc1cc(Nc2c(C#N)cnc3cc(OCCCN4CCN(C)CC4)c(OC)cc23)c(Cl)cc1Cl` [bosutinib], under “after 5 days of treatment, FIG. 3C”, the “contraction of the muscle bundle relative to muscle movement of normal NMJs” value was “approximately 85%”. The “concentration giving the greatest recovery of muscle movement” value (various concentrations tested, FIGS. 3D and 3E) amounted to 100 µM.

Values taken from US20260265700A1, “NEURAL BIOHYBRID MANUFACTURED USING REDUCED GRAPHENE OXIDE NANOPARTICLES, NEUROMUSCULAR JUNCTION MODEL USING SAME, AND DRUG SCREENING METHOD USING SAME” (Sogang University Research & Business Development Foundation, priority 2023, published 2026).
